Experimental data published in PubChem BioAssay AID2060485 (Molecular Pharmacology Branch, DTP, NCI, 2025).

Tested on: A375 multi-cell spheroids with HUVEC/MSC, viability
Test: Anticancer human tumor A375 cell line growth inhibition [GQUAD];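 note: spheroids exposed to compounds for seven days before readout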
Details: for IC50: curve of first compound; for viability, T/C: stronger effect = lower value; active = viability on the fitted dose curve at most 10% of control; inactive = the rest
Summary of the method: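 Tumor cells were grown as complex spheroids with HUVEC endothelial cells and mesenchymal stem cells as stroma. G-quadruplex stabilizers were combined with targeted agents over half-log dilutions from near the clinical Cmax, or from 10 microM.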

[1] = second compound 0.0316 µM, first compound 0.0316 µM
[2] = second compound 0.0316 µM, first compound 0.1 µM
[3] = second compound 0.0316 µM, first compound 0.316 µM
[4] = second compound 0.0316 µM, first compound 1 µM
[5] = second compound 0.0316 µM, first compound 3.16 µM
[6] = second compound 0.0316 µM, first compound 10 µM
[7] = second compound 0.1 µM, first compound 0.0316 µM
[8] = second compound 0.1 µM, first compound 0.1 µM
[9] = second compound 0.1 µM, first compound 0.316 µM
[10] = second compound 0.1 µM, first compound 1 µM
[11] = second compound 0.1 µM, first compound 3.16 µM
[12] = second compound 0.1 µM, first compound 10 µM
[13] = second compound 0.316 µM, first compound 0.0316 µM
[14] = second compound 0.316 µM, first compound 0.1 µM
[15] = second compound 0.316 µM, first compound 0.316 µM
[16] = second compound 0.316 µM, first compound 1 µM
[17] = second compound 0.316 µM, first compound 3.16 µM
[18] = second compound 0.316 µM, first compound 10 µM
[19] = second compound 1 µM, first compound 0.0316 µM
[20] = second compound 1 µM, first compound 0.1 µM
[21] = second compound 1 µM, first compound 0.316 µM
[22] = second compound 1 µM, first compound 1 µM
[23] = second compound 1 µM, first compound 3.16 µM
[24] = second compound 1 µM, first compound 10 µM
[25] = second compound 3.16 µM, first compound 0.0316 µM
[26] = second compound 3.16 µM, first compound 0.1 µM
[27] = second compound 3.16 µM, first compound 0.316 µM
[28] = second compound 3.16 µM, first compound 1 µM
[29] = second compound 3.16 µM, first compound 3.16 µM
[30] = second compound 3.16 µM, first compound 10 µM
[31] = second compound 10 µM, first compound 0.0316 µM
[32] = second compound 10 µM, first compound 0.1 µM
[33] = second compound 10 µM, first compound 0.316 µM
[34] = second compound 10 µM, first compound 1 µM
[35] = second compound 10 µM, first compound 3.16 µM
[36] = second compound 10 µM, first compound 10 µM

CC1COCCN1c1cc(C2(S(C)(=N)=O)CC2)nc(-c2ccnc3[nH]ccc23)n1 (stereo not given) + Cc1[nH]c2ccc(F)cc2c1-c1nc2c3cccnc3c3ncccc3c2[nH]1
2.11 µM: IC50 (second compound 10 µM)
7.96 µM: IC50 (second compound 1 µM)
9.01 µM: IC50 (second compound 0.316 µM)
inactive: viability, T/C [1] 105% | viability, T/C [2] 107% | viability, T/C [3] 99.4% | viability, T/C [4] 92% | viability, T/C [5] 64.5% | viability, T/C [6] 43.9% | viability, T/C [7] 113% | viability, T/C [8] 106% | viability, T/C [9] 107% | viability, T/C [10] 98.2% | viability, T/C [11] 74.4% | viability, T/C [12] 44.2% | viability, T/C [13] 106% | viability, T/C [14] 105% | viability, T/C [15] 112% | viability, T/C [16] 109% | viability, T/C [17] 78.7% | viability, T/C [18] 47.2% | viability, T/C [19] 108% | viability, T/C [20] 109% | viability, T/C [21] 115% | viability, T/C [22] 112% | viability, T/C [23] 82% | viability, T/C [24] 42% | viability, T/C [25] 107% | viability, T/C [26] 88.7% | viability, T/C [27] 83.3% | viability, T/C [28] 57% | viability, T/C [29] 27.8% | viability, T/C [30] 12.9% | viability, T/C [31] 94.5% | viability, T/C [32] 107% | viability, T/C [33] 104% | viability, T/C [34] 74.9% | viability, T/C [35] 36.9% | viability, T/C [36] 15.4%
8.02 µM: IC50 (second compound 0.1 µM)
1.3 µM: IC50 (second compound 3.16 µM)
7.11 µM: IC50 (second compound 0.0316 µM)

COc1cccc2c1C(=O)c1c(O)c3c(c(O)c1C2=O)CC(O)(C(=O)CO)CC3OC1CC(N)C(O)C(C)O1 (stereo not given) + CN(C)c1ccc(Nc2c3ccc(NC(=O)CCN4CCCC4)cc3nc3cc(NC(=O)CCN4CCCC4)ccc23)cc1
0.214 µM: IC50 (second compound 0.1 µM)
0.217 µM: IC50 (second compound 0.316 µM)
active: viability, T/C [5] 2.21% | viability, T/C [6] 0.12% | viability, T/C [11] 2.59% | viability, T/C [12] 0.11% | viability, T/C [17] 2.01% | viability, T/C [18] 0.1% | viability, T/C [23] 2.55% | viability, T/C [24] 0.13% | viability, T/C [29] 2.88% | viability, T/C [30] 0.15% | viability, T/C [35] 4.36% | viability, T/C [36] 0.25%
0.233 µM: IC50 (second compound 10 µM)
0.222 µM: IC50 (second compound 1 µM)
0.196 µM: IC50 (second compound 0.0316 µM)
0.229 µM: IC50 (second compound 3.16 µM)
inactive: viability, T/C [1] 107% | viability, T/C [2] 70.2% | viability, T/C [3] 34% | viability, T/C [4] 18.7% | viability, T/C [7] 105% | viability, T/C [8] 75.2% | viability, T/C [9] 34.6% | viability, T/C [10] 18.5% | viability, T/C [13] 110% | viability, T/C [14] 79.7% | viability, T/C [15] 32.2% | viability, T/C [16] 18.3% | viability, T/C [19] 107% | viability, T/C [20] 80.7% | viability, T/C [21] 33.2% | viability, T/C [22] 17.7% | viability, T/C [25] 112% | viability, T/C [26] 82% | viability, T/C [27] 34.2% | viability, T/C [28] 18.6% | viability, T/C [31] 103% | viability, T/C [32] 77.5% | viability, T/C [33] 38.3% | viability, T/C [34] 17.9%

COc1ncnc(C2CC2)c1-c1ncc2cnn(Cc3ccc(-c4nc(C(F)(F)F)cn4C(C)C)cc3)c2n1 + CN(C)c1ccc(Nc2c3ccc(NC(=O)CCN4CCCC4)cc3nc3cc(NC(=O)CCN4CCCC4)ccc23)cc1
> 10 µM: IC50 (second compound 0.0316 µM) | IC50 (second compound 0.1 µM) | IC50 (second compound 0.316 µM) | IC50 (second compound 1 µM) | IC50 (second compound 3.16 µM) | IC50 (second compound 10 µM)
inactive: viability, T/C [1] 108% | viability, T/C [2] 100% | viability, T/C [3] 115% | viability, T/C [4] 104% | viability, T/C [5] 108% | viability, T/C [6] 104% | viability, T/C [7] 105% | viability, T/C [8] 105% | viability, T/C [9] 102% | viability, T/C [10] 103% | viability, T/C [11] 105% | viability, T/C [12] 114% | viability, T/C [13] 103% | viability, T/C [14] 110% | viability, T/C [15] 110% | viability, T/C [16] 101% | viability, T/C [17] 107% | viability, T/C [18] 105% | viability, T/C [19] 109% | viability, T/C [20] 91% | viability, T/C [21] 101% | viability, T/C [22] 112% | viability, T/C [23] 104% | viability, T/C [24] 102% | viability, T/C [25] 109% | viability, T/C [26] 102% | viability, T/C [27] 109% | viability, T/C [28] 104% | viability, T/C [29] 106% | viability, T/C [30] 104% | viability, T/C [31] 93% | viability, T/C [32] 101% | viability, T/C [33] 94% | viability, T/C [34] 98.9% | viability, T/C [35] 96.1% | viability, T/C [36] 92.8%

CC(C)(O)C1CCC(Nc2ccc3ncc(-c4cccc(C(F)(F)F)c4)n3n2)CC1 (stereo not given) + Cc1cnc(CNC(=O)c2c(=O)c3ccc(N4CCCN(C)CC4)nc3n3c2sc2ccccc23)cn1
active: viability, T/C [36] 0.26%
> 10 µM: IC50 (second compound 0.0316 µM)
inactive: viability, T/C [1] 104% | viability, T/C [2] 110% | viability, T/C [3] 103% | viability, T/C [4] 96.1% | viability, T/C [5] 65.3% | viability, T/C [6] 91.2% | viability, T/C [7] 85.9% | viability, T/C [8] 79.5% | viability, T/C [9] 78.2% | viability, T/C [10] 54.5% | viability, T/C [11] 41% | viability, T/C [12] 49.1% | viability, T/C [13] 55% | viability, T/C [14] 53.4% | viability, T/C [15] 45.5% | viability, T/C [16] 38.8% | viability, T/C [17] 31.7% | viability, T/C [18] 29.7% | viability, T/C [19] 38.5% | viability, T/C [20] 40.9% | viability, T/C [21] 38% | viability, T/C [22] 31.4% | viability, T/C [23] 27.6% | viability, T/C [24] 25% | viability, T/C [25] 32.5% | viability, T/C [26] 35.4% | viability, T/C [27] 33% | viability, T/C [28] 26.3% | viability, T/C [29] 17.5% | viability, T/C [30] 23.8% | viability, T/C [31] 29.4% | viability, T/C [32] 27.5% | viability, T/C [33] 28.9% | viability, T/C [34] 21.2% | viability, T/C [35] 8.8%
1.73 µM: IC50 (second compound 0.1 µM)
0.124 µM: IC50 (second compound 0.316 µM)
< 0.0316 µM: IC50 (second compound 1 µM) | IC50 (second compound 3.16 µM) | IC50 (second compound 10 µM)

CCCS(=O)(=O)Nc1ccc(F)c(C(=O)c2c[nH]c3ncc(-c4ccc(Cl)cc4)cc23)c1F + CN(C)c1ccc(Nc2c3ccc(NC(=O)CCN4CCCC4)cc3nc3cc(NC(=O)CCN4CCCC4)ccc23)cc1
active: viability, T/C [3] 8.13% | viability, T/C [4] 6.52% | viability, T/C [5] 4.92% | viability, T/C [6] 5.69% | viability, T/C [9] 7.72% | viability, T/C [10] 6.32% | viability, T/C [11] 5.28% | viability, T/C [12] 5.54% | viability, T/C [15] 8.27% | viability, T/C [16] 6.77% | viability, T/C [17] 4.48% | viability, T/C [18] 4.46% | viability, T/C [21] 7.95% | viability, T/C [22] 6.06% | viability, T/C [23] 4.78% | viability, T/C [24] 2.9% | viability, T/C [27] 6.95% | viability, T/C [28] 5.84% | viability, T/C [29] 4.55% | viability, T/C [30] 0.61% | viability, T/C [33] 7% | viability, T/C [34] 5.45% | viability, T/C [35] 4.34% | viability, T/C [36] 0.17%
inactive: viability, T/C [1] 40.3% | viability, T/C [2] 14.1% | viability, T/C [7] 45% | viability, T/C [8] 14.1% | viability, T/C [13] 39.4% | viability, T/C [14] 14.7% | viability, T/C [19] 34.9% | viability, T/C [20] 15% | viability, T/C [25] 36.5% | viability, T/C [26] 14.8% | viability, T/C [31] 36.9% | viability, T/C [32] 12.4%
< 0.0316 µM: IC50 (second compound 0.0316 µM) | IC50 (second compound 0.1 µM) | IC50 (second compound 0.316 µM) | IC50 (second compound 1 µM) | IC50 (second compound 3.16 µM) | IC50 (second compound 10 µM)
